Here are results for 22 molecules from patent US11434222B2, “MAGL inhibitors” (H. LUNDBECK A/S, priority 2020, dated 2022).

The target in one series is T1, MAGL (Homo sapiens, UniProt Q99685).
T1 construct: PC3 human cell membrane proteomes; endogenous in cells; host or cells: PC3 human cells (membrane proteome)
T1 sequence (Q99685 1-303): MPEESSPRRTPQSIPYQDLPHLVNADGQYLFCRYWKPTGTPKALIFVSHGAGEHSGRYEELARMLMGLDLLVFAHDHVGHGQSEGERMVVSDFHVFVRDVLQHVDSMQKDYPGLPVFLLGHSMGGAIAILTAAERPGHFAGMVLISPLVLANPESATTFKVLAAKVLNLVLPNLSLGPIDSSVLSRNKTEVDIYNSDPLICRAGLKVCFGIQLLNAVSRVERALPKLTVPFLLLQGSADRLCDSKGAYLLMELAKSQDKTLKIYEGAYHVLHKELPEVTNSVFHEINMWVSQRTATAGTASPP
Put plainly: In vitro competitive activity-based protein profiling (PC3 human cell membrane proteomes).
Settings: not given
The format is biochemical. The method, then: PC3 human cell membrane proteomes (50 µL, 2.0 mg/mL total protein concentration) were preincubated with varying concentrations of inhibitors at 37° C. After 30 min, the ABPP probe JW912-Bodipy (1.0 µL, 50 µM in DMSO) was added and the mixture was incubated for 30 min at room temperature. Reactions were quenched with SDS loading buffer (15 μL-4×) and run on SDS-PAGE. Following gel imaging, serine hydrolase activity was determined by measuring fluorescent intensity of gel bands corresponding to MAGL using ImageJ 1.43u software. Intensities were converted to percent enzyme activity by normalizing to DMSO controls. IC50 values were determined by fitting percent enzyme activities to a non-linear regression, 4-parameter, sigmoidal dose response function in Prism GraphPad.
With `O=C(NC(=O)C1CC12CCN(C(=O)OC(C(F)(F)F)C(F)(F)F)CC2)C1CCCCC1` (single isomer, unassigned) [Example 91, 1,1,1,3,3,3-hexafluoropropan-2-yl (R or S)-1-((cyclohexanecarbonyl)carbamoyl)-6-azaspiro[2.5]octane-6-carboxylate], the “MAGL % inh. 1 µM (human PC3)” value was found to be 100%.

`O=C(OC(C(F)(F)F)C(F)(F)F)N1CCC2(CC1)CC2C(=O)N1CCn2cc(C(F)(F)F)nc2C1` (single isomer, unassigned) [Example 52, 1,1,1,3,3,3-hexafluoropropan-2-yl (R or S)-1-(2-(trifluoromethyl)-5,6,7,8-tetrahydroimidazo[1,2-a]pyrazine-7-carbonyl)-6-azaspiro[2.5]octane-6-carboxylate]: the “MAGL % inh. 1 µM (human PC3)” value turned out to be 100%.

Regarding `O=C(Nc1ccccn1)C1CC12CCN(C(=O)OC(C(F)(F)F)C(F)(F)F)CC2` (single isomer, unassigned) [Example 49, 1,1,1,3,3,3-hexafluoropropan-2-yl (R or S)-1-(pyridin-2-ylcarbamoyl)-6-azaspiro[2.5]octane-6-carboxylate], the “MAGL % inh. 1 µM (human PC3)” value is on record as 100%.

Regarding `O=C(Nc1ccc(C(F)(F)F)nc1)C1CC12CCN(C(=O)OC(C(F)(F)F)C(F)(F)F)CC2` (single isomer, unassigned) [Example 79, 1,1,1,3,3,3-hexafluoropropan-2-yl (R or S)-1-((6-(trifluoromethyl)pyridin-3-yl)carbamoyl)-6-azaspiro[2.5]octane-6-carboxylate], the “MAGL % inh. 1 µM (human PC3)” value is recorded as 50%.

As for `Cc1ncccc1NC(=O)C1CC12CCN(C(=O)OC(C(F)(F)F)C(F)(F)F)CC2` (single isomer, unassigned) [Example 70, 1,1,1,3,3,3-hexafluoropropan-2-yl (R or S)-1-((2-methylpyridin-3-yl)carbamoyl)-6-azaspiro[2.5]octane-6-carboxylate], the “MAGL % inh. 1 µM (human PC3)” value is 75%.

Consider `O=C(NC(=O)C1CC12CCN(C(=O)OC(C(F)(F)F)C(F)(F)F)CC2)c1ccccc1` (single isomer, unassigned) [Example 94, 1,1,1,3,3,3-hexafluoropropan-2-yl (R or S)-1-(benzoylcarbamoyl)-6-azaspiro[2.5]octane-6-carboxylate], for which the “MAGL % inh. 1 µM (human PC3)” value worked out at 100%.

Regarding `Cc1ccc(NC(=O)C2CC23CCN(C(=O)OC(C(F)(F)F)C(F)(F)F)CC3)cn1` (single isomer, unassigned) [Example 82, 1,1,1,3,3,3-hexafluoropropan-2-yl (R or S)-1-((6-methylpyridin-3-yl)carbamoyl)-6-azaspiro[2.5]octane-6-carboxylate], the “MAGL % inh. 1 µM (human PC3)” value was determined as 100%.

Regarding `O=C(NCc1cccnc1)C1CC12CCN(C(=O)OC(C(F)(F)F)C(F)(F)F)CC2` (single isomer, unassigned) [Example 88, 1,1,1,3,3,3-hexafluoropropan-2-yl (R or S)-1-((pyridin-3-ylmethyl)carbamoyl)-6-azaspiro[2.5]octane-6-carboxylate], the “MAGL % inh. 1 µM (human PC3)” value came to 100%.

For the molecule `O=C(Nc1cnc(C(F)(F)F)nc1)C1CC12CCN(C(=O)OC(C(F)(F)F)C(F)(F)F)CC2` (single isomer, unassigned) [Example 100, 1,1,1,3,3,3-hexafluoropropan-2-yl (R or S)-1-((2-(trifluoromethyl)pyrimidin-5-yl)carbamoyl)-6-azaspiro[2.5]octane-6-carboxylate], the “MAGL % inh. 1 µM (human PC3)” value amounted to 75%.

`O=C(OC(C(F)(F)F)C(F)(F)F)N1CCC2(CC1)CC2C(=O)N1CCc2cnc(C(F)(F)F)nc2C1` (single isomer, unassigned) [Example 58, 1,1,1,3,3,3-hexafluoropropan-2-yl (R or S)-1-(2-(trifluoromethyl)-5,6,7,8-tetrahydropyrido[3,4-d]pyrimidine-7-carbonyl)-6-azaspiro[2.5]octane-6-carboxylate]: the “MAGL % inh. 1 µM (human PC3)” value came out at 100%.

As for `O=C(Nc1cccc(C(F)(F)F)n1)C1CC12CCN(C(=O)OC(C(F)(F)F)C(F)(F)F)CC2` (single isomer, unassigned) [Example 73, 1,1,1,3,3,3-hexafluoropropan-2-yl (R or S)-1-((6-(trifluoromethyl)pyridin-2-yl)carbamoyl)-6-azaspiro[2.5]octane-6-carboxylate], the “MAGL % inh. 1 µM (human PC3)” value turned out to be 100%.

In the case of `Cc1ncccc1NC(=O)C1CC12CCN(C(=O)OC(C(F)(F)F)C(F)(F)F)CC2` (single isomer, unassigned) [Example 69, 1,1,1,3,3,3-hexafluoropropan-2-yl (R or S)-1-((2-methylpyridin-3-yl)carbamoyl)-6-azaspiro[2.5]octane-6-carboxylate], the “MAGL % inh. 1 µM (human PC3)” value worked out at 100%.

In the case of `O=C(OC(C(F)(F)F)C(F)(F)F)N1CCC2(CC1)CC2C(=O)N1CCc2nc(C3CC3)ncc2C1` (single isomer, unassigned) [Example 64, 1,1,1,3,3,3-hexafluoropropan-2-yl (R or S)-1-(2-cyclopropyl-5,6,7,8-tetrahydropyrido[4,3-d]pyrimidine-6-carbonyl)-6-azaspiro[2.5]octane-6-carboxylate], the “MAGL % inh. 1 µM (human PC3)” value was 100%.

As to `O=C(OC(C(F)(F)F)C(F)(F)F)N1CCC2(CC1)CC2C(=O)N1CCc2ncncc2C1` (single isomer, unassigned) [Example 61, 1,1,1,3,3,3-hexafluoropropan-2-yl (R or S)-1-(5,6,7,8-tetrahydropyrido[4,3-d]pyrimidine-6-carbonyl)-6-azaspiro[2.5]octane-6-carboxylate], the “MAGL % inh. 1 µM (human PC3)” value is 75%.

For the molecule `O=C(Nc1cncc(Cl)c1)C1CC12CCN(C(=O)OC(C(F)(F)F)C(F)(F)F)CC2` (single isomer, unassigned) [Example 67, 1,1,1,3,3,3-hexafluoropropan-2-yl (R or S)-1-((5-chloropyridin-3-yl)carbamoyl)-6-azaspiro[2.5]octane-6-carboxylate], the “MAGL % inh. 1 µM (human PC3)” value turned out to be 100%.

Regarding `CN(C(=O)C1CC12CCN(C(=O)OC(C(F)(F)F)C(F)(F)F)CC2)c1ccccn1` (single isomer, unassigned) [Example 46, 1,1,1,3,3,3-hexafluoropropan-2-yl (R or S)-1-(methyl(pyridin-2-yl)carbamoyl)-6-azaspiro[2.5]octane-6-carboxylate], the “MAGL % inh. 1 µM (human PC3)” value is 100%.

With `O=C(Nc1cncnc1)C1CC12CCN(C(=O)OC(C(F)(F)F)C(F)(F)F)CC2` (single isomer, unassigned) [Example 97, 1,1,1,3,3,3-hexafluoropropan-2-yl (R or S)-1-(pyrimidin-5-ylcarbamoyl)-6-azaspiro[2.5]octane-6-carboxylate], the “MAGL % inh. 1 µM (human PC3)” value came to 90%.

Consider `O=C(Nc1cnccn1)C1CC12CCN(C(=O)OC(C(F)(F)F)C(F)(F)F)CC2` (single isomer, unassigned) [Example 55, 1,1,1,3,3,3-hexafluoropropan-2-yl (R or S)-1-(pyrazin-2-ylcarbamoyl)-6-azaspiro[2.5]octane-6-carboxylate], for which the “MAGL % inh. 1 µM (human PC3)” value worked out at 100%.

For `O=C(Nc1cccnc1C(F)(F)F)C1CC12CCN(C(=O)OC(C(F)(F)F)C(F)(F)F)CC2` (single isomer, unassigned) [Example 85, 1,1,1,3,3,3-hexafluoropropan-2-yl (R or S)-1-((2-(trifluoromethyl)pyridin-3-yl)carbamoyl)-6-azaspiro[2.5]octane-6-carboxylate], the “MAGL % inh. 1 µM (human PC3)” value was determined as 100%.

System in the next series: not listed separately
Nature of the series: Kinetic solubility in PBS. As to conditions: aqueous buffer, kinetic from dmso stock, PBS pH 2.0, RT, read-out: pH 2 Solubility (kinetic). The format is physicochemical. The method, then: The kinetic solubility of test articles was determined in PBS at pH 2.0 and pH 7.4 in duplicate. A stock solution of test compound in DMSO (10 mM) was incubated at RT for 2 hours with shaking at 1,100 RPM. The sample was then filtered using a vacuum manifold, diluted, and analyzed by LC-MS/MS. Chromatographic conditions: Phenomenex Synergi 4μ Hydro-PR 80A column (2.0×30 mm) coupled with pre-guard column; mobile phase=0.1% formic acid in acetonitrile and 0.1% formic acid in water; flowrate=0.65 mL/min; column temperature=40° C.; injection volume: 3 μL.
Mass conditions: Turbo spray ion source; ESI ionization model; MRM scan type; Collison gas=6 L/min; Curtain gas=30 L/min; Nebulize gas=50 L/min; Auxiliary gas=50 L/min; Temperature=500 degrees C.; Ion spray voltage=+5500 v (positive MRM).
The filtered solution was analyzed and quantified against a standard of known concentration in DMSO using UPLC coupled with mass spectral peak identification and quantitation. Solubility values of the test articles were calculated using Microsoft Excel as follows (DF is the dilution factor): […]
The solubility (kinetic) is the concentration staying in solution when a stock, usually in DMSO, is diluted into the medium. In the case of `O=C(NC(=O)C1CC12CCN(C(=O)OC(C(F)(F)F)C(F)(F)F)CC2)C1CCCCC1` (single isomer, unassigned) [Example 90, 1,1,1,3,3,3-hexafluoropropan-2-yl (R or S)-1-((cyclohexanecarbonyl)carbamoyl)-6-azaspiro[2.5]octane-6-carboxylate], the solubility (kinetic) at 2 h came to 33 µM.

The series is the same for the next values; noted with them: aqueous buffer, kinetic from dmso stock, PBS pH 7.4, RT, read-out: pH 7.4 Solubility (kinetic).
Take `O=C(Nc1cncc(Cl)c1)C1CC12CCN(C(=O)OC(C(F)(F)F)C(F)(F)F)CC2` (single isomer, unassigned) [Example 66, 1,1,1,3,3,3-hexafluoropropan-2-yl (R or S)-1-((5-chloropyridin-3-yl)carbamoyl)-6-azaspiro[2.5]octane-6-carboxylate]: the kinetic solubility at 2 h was determined as 8.74 µM.

Take `O=C(Nc1ccnc(C(F)(F)F)n1)[C@H]1CC12CCN(C(=O)OC(C(F)(F)F)C(F)(F)F)CC2` (single isomer, unassigned) [Example 17]: the solubility (kinetic) at 2 h was 0.07 µM.
